The assay relates to CD2F1 mice, L1210 leukemia ip, survival T/C. Nature of the assay: NCI In Vivo Anticancer Drug Screen. Data for tumor model L1210 Leukemia (intraperitoneal) in CD2F1 (CDF1) mice. The conditions noted are these: higher = longer survival. The essentials: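 Implant tumor; dose compound or vehicle; measure endpoint in both groups; report treated divided by control.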
The mark [1] stands for this setting: endpoint: mean survival time, dose: 6.25 mg/kg/injection, schedule: Q01DX009 (ip), vehicle: saline with Tween-80.
[2] abbreviates: endpoint: mean survival time, dose: 6.25 mg/kg/injection, schedule: Q01DX009 (ip), vehicle: saline.
Setting [3] is: endpoint: mean survival time, dose: 12.5 mg/kg/injection, schedule: Q01DX009 (ip), vehicle: saline with Tween-80.
[4] abbreviates: endpoint: mean survival time, dose: 12.5 mg/kg/injection, schedule: Q01DX009 (ip), vehicle: saline.
The mark [5] stands for this setting: endpoint: mean survival time, dose: 25.0 mg/kg/injection, schedule: Q01DX009 (ip), vehicle: saline with Tween-80.
The mark [6] stands for this setting: endpoint: mean survival time, dose: 50.0 mg/kg/injection, schedule: Q01DX009 (ip), vehicle: saline with Tween-80.
Setting [7] is: endpoint: mean survival time, dose: 50.0 mg/kg/injection, schedule: Q01DX009 (ip), vehicle: saline.
Setting [8] is: endpoint: mean survival time, dose: 100.0 mg/kg/injection, schedule: Q01DX009 (ip), vehicle: saline.
Setting [9] is: endpoint: mean survival time, dose: 200.0 mg/kg/injection, schedule: Q01DX009 (ip), vehicle: saline.
[10] abbreviates: endpoint: mean survival time, dose: 100.0 mg/kg/injection, schedule: Q01DX001 (ip), vehicle: saline.
The mark [11] stands for this setting: endpoint: mean survival time, dose: 200.0 mg/kg/injection, schedule: Q01DX001 (ip), vehicle: saline.
The mark [12] stands for this setting: endpoint: mean survival time, dose: 400.0 mg/kg/injection, schedule: Q01DX001 (ip), vehicle: saline.
The mark [13] stands for this setting: endpoint: mean survival time, dose: 100.0 mg/kg/injection, schedule: Q04DX003 (ip), vehicle: saline with Tween-80.
[14] abbreviates: endpoint: mean survival time, dose: 200.0 mg/kg/injection, schedule: Q04DX003 (ip), vehicle: saline with Tween-80.
The mark [15] stands for this setting: endpoint: mean survival time, dose: 400.0 mg/kg/injection, schedule: Q04DX003 (ip), vehicle: saline with Tween-80.
[16] abbreviates: endpoint: mean survival time, dose: 100.0 mg/kg/injection, schedule: Q01DX001 (ip), vehicle: saline with Tween-80.
The mark [17] stands for this setting: endpoint: mean survival time, dose: 200.0 mg/kg/injection, schedule: Q01DX001 (ip), vehicle: saline with Tween-80.
[18] abbreviates: endpoint: mean survival time, dose: 400.0 mg/kg/injection, schedule: Q01DX001 (ip), vehicle: saline with Tween-80.

Toxic doses and inconclusive results are not listed.

Turning to `COC(=O)C(Cl)(Cl)N=Nc1c(Cl)cc(Cl)c(C)c1Cl`, the T/C under setting [1] is 96 % of control; the T/C under setting [2] is 93 % of control; the T/C under setting [3] is 100 % of control; the T/C under setting [4] is 98 % of control; the T/C under setting [5] was 97 % of control; the T/C (endpoint: mean survival time, dose: 25.0 mg/kg/injection, schedule: Q01DX009 (ip), vehicle: saline) is 93 % of control. Besides, the T/C by setting is: under setting [6], 94 % of control; under setting [7], 98 % of control; (endpoint: mean survival time, dose: 100.0 mg/kg/injection, schedule: Q01DX009 (ip), vehicle: saline with Tween-80) 102 % of control; under setting [8], 90 % of control; (endpoint: mean survival time, dose: 200.0 mg/kg/injection, schedule: Q01DX009 (ip), vehicle: saline with Tween-80) 86 % of control; under setting [9], 86 % of control.
Regarding `CC(C)NC(=O)C1CC2c3cccc4[nH]c(Br)c(c34)CC2N(C)C1` (stereo not drawn), the T/C (endpoint: mean survival time, dose: 5.0 mg/kg/injection, schedule: Q01DX009 (ip), vehicle: saline with Tween-80) is 90 % of control; the T/C (endpoint: mean survival time, dose: 10.0 mg/kg/injection, schedule: Q01DX009 (ip), vehicle: saline with Tween-80) is 104 % of control; the T/C (endpoint: mean survival time, dose: 20.0 mg/kg/injection, schedule: Q01DX009 (ip), vehicle: saline with Tween-80) was 94 % of control.
On to `CCCCCCCCCCCCCCCCn1cnc2c(Cl)ncnc21`, for which the T/C is 94 % of control (endpoint: mean survival time, dose: 12.5 mg/kg/injection, schedule: Q01DX005 (ip), vehicle: other); 91 % of control (endpoint: mean survival time, dose: 25.0 mg/kg/injection, schedule: Q01DX005 (ip), vehicle: other); 91 % of control (endpoint: mean survival time, dose: 50.0 mg/kg/injection, schedule: Q01DX005 (ip), vehicle: other); 92 % of control (endpoint: mean survival time, dose: 100.0 mg/kg/injection, schedule: Q01DX005 (ip), vehicle: other); 89 % of control (endpoint: mean survival time, dose: 200.0 mg/kg/injection, schedule: Q01DX005 (ip), vehicle: other).
With `CC(=O)CCCOC(C)=O`, the T/C is, setting by setting: under setting [10], 103 % of control; under setting [11], 100 % of control; under setting [12], 100 % of control.
Take `CO[C@@]12[C@@H]3N[C@@H]3CN1C1=C(C(=O)C(Nc3cccc(O)c3)=C(C)C1=O)[C@@H]2COC(N)=O`: the T/C is, setting by setting: (endpoint: median survival time, dose: 1.5 mg/kg/injection, schedule: Q01DX001 (ip), vehicle: water) 113 % of control; (endpoint: median survival time, dose: 3.0 mg/kg/injection, schedule: Q01DX001 (ip), vehicle: water) 119 % of control; (endpoint: median survival time, dose: 12.0 mg/kg/injection, schedule: Q01DX001 (ip), vehicle: water) 122 % of control.
Consider `CCc1nc(N)nc(N)c1-c1ccc(Cl)c([N+](=O)[O-])c1`, for which the T/C is 101 % of control (endpoint: mean survival time, dose: 3.12 mg/kg/injection, schedule: Q01DX009 (ip), vehicle: saline with Tween-80) and 106 % of control under setting [1].
On to `CC1CC(=O)C(CCC#N)=C(O)C1` (stereo not drawn), for which the T/C by setting is: under setting [13], 94 % of control; under setting [14], 91 % of control; under setting [15], 91 % of control.
`CN(C)N=Nc1ccc(NC(N)=O)cc1`: the T/C reads like this: under setting [1], 108 % of control; under setting [2], 118 % of control; under setting [3], 113 % of control; under setting [4], 111 % of control; under setting [5], 118 % of control; (endpoint: mean survival time, dose: 37.5 mg/kg/injection, schedule: Q01DX009 (ip), vehicle: Klucel (hydroxypropylcellulose) (HPC)) 158 % of control. In addition, the T/C under setting [6] was 159 % of control.
For the molecule `CCOc1ccc(-n2c(=O)c(N=Nc3ccccc3OC)c(O)n(-c3ccc(C)cc3)c2=S)cc1`, the T/C is 98 % of control under setting [16], 101 % of control under setting [17] and 97 % of control under setting [18].
As for `O=[N+]([O-])c1ccc(Cn2cc[n+](Cc3ccc([N+](=O)[O-])cc3)c2)cc1`, the T/C runs as follows: under setting [3], 98 % of control; (endpoint: mean survival time, dose: 25.0 mg/kg/injection, schedule: Q01DX001 (ip), vehicle: saline with Tween-80) 108 % of control; under setting [5], 90 % of control; (endpoint: mean survival time, dose: 50.0 mg/kg/injection, schedule: Q01DX001 (ip), vehicle: saline with Tween-80) 104 % of control; under setting [6], 93 % of control; under setting [16], 98 % of control.
Regarding `CC/C(=C\c1ccc(Cl)cc1)[N+](=O)[O-]`, the T/C reads like this: (endpoint: mean survival time, dose: 12.5 mg/kg/injection, schedule: Q04DX003 (ip), vehicle: Klucel (hydroxypropylcellulose) (HPC)) 102 % of control; (endpoint: mean survival time, dose: 25.0 mg/kg/injection, schedule: Q04DX003 (ip), vehicle: Klucel (hydroxypropylcellulose) (HPC)) 97 % of control; (endpoint: mean survival time, dose: 50.0 mg/kg/injection, schedule: Q04DX003 (ip), vehicle: Klucel (hydroxypropylcellulose) (HPC)) 97 % of control.
For `CC(=O)Nc1cccc(OCCCOc2cccc([N+](=O)[O-])c2)c1`, the T/C by setting is: under setting [13], 95 % of control; under setting [14], 95 % of control; under setting [15], 92 % of control.
With `OCc1ccc(Cl)c(Cl)c1`, the T/C is, setting by setting: under setting [13], 97 % of control; under setting [14], 102 % of control; under setting [15], 96 % of control.
Consider `Oc1cc(O)c2c(c1)O[C@H](c1ccc(O)c(O)c1)[C@@H](O)C2`, for which the T/C is 101 % of control under setting [10], 101 % of control under setting [11] and 98 % of control under setting [12].
In the case of `OCCOc1ccc2ccccc2c1`, the T/C is, setting by setting: under setting [16], 100 % of control; (endpoint: mean survival time, dose: 100.0 mg/kg/injection, schedule: Q04DX003 (ip), vehicle: saline + alcohol) 97 % of control; under setting [17], 108 % of control; (endpoint: mean survival time, dose: 200.0 mg/kg/injection, schedule: Q04DX003 (ip), vehicle: saline + alcohol) 95 % of control; under setting [18], 103 % of control; (endpoint: mean survival time, dose: 400.0 mg/kg/injection, schedule: Q04DX003 (ip), vehicle: saline + alcohol) 91 % of control.
Consider `COc1cc(C(O)C(Cl)(Cl)Cl)ccc1O` (stereo not drawn), for which the T/C (endpoint: mean survival time, dose: 100.0 mg/kg/injection, schedule: Q01DX009 (ip), vehicle: other) was 94 % of control; the T/C (endpoint: mean survival time, dose: 200.0 mg/kg/injection, schedule: Q01DX009 (ip), vehicle: other) was 105 % of control; the T/C (endpoint: mean survival time, dose: 400.0 mg/kg/injection, schedule: Q01DX009 (ip), vehicle: other) was 94 % of control.
As to `C1CC[N-]CC1.CC(=N\O)/C(C)=N/O.CC(=N\O)/C(C)=N/O.C[CH-]C(C)O.[Co+2]`, the T/C (endpoint: mean survival time, dose: 6.25 mg/kg/injection, schedule: Q04DX003 (ip), vehicle: saline) is 97 % of control.
As for `NC(=O)C(Br)Cc1cccc(Cl)c1` (stereo not drawn), the T/C was 102 % of control (endpoint: mean survival time, dose: 50.0 mg/kg/injection, schedule: Q01DX001 (ip), vehicle: saline); 100 % of control under setting [10]; 100 % of control under setting [11]; 100 % of control under setting [12].
For `CC(C)(O)C(Cl)(Cl)Cl`, the T/C is 97 % of control under setting [7], 95 % of control under setting [8] and 107 % of control under setting [9].
As to `COc1ccccc1NC(=O)Oc1ccc(-c2ccccc2)cc1Cl`, the T/C (endpoint: mean survival time, dose: 100.0 mg/kg/injection, schedule: Q04DX002 (ip), vehicle: saline with Tween-80) is 100 % of control; the T/C (endpoint: mean survival time, dose: 200.0 mg/kg/injection, schedule: Q04DX002 (ip), vehicle: saline with Tween-80) was 103 % of control; the T/C (endpoint: mean survival time, dose: 400.0 mg/kg/injection, schedule: Q04DX002 (ip), vehicle: saline with Tween-80) was 88 % of control.
Turning to `COC(=O)N1c2ccccc2C23CCN4CCCC5(CCC12C(C(=O)O)C5)C43` (stereo not drawn), the T/C (endpoint: mean survival time, dose: 75.0 mg/kg/injection, schedule: Q01DX001 (ip), vehicle: other) was 93 % of control; the T/C (endpoint: mean survival time, dose: 150.0 mg/kg/injection, schedule: Q01DX001 (ip), vehicle: other) is 101 % of control; the T/C (endpoint: mean survival time, dose: 300.0 mg/kg/injection, schedule: Q01DX001 (ip), vehicle: other) was 107 % of control.
Take `NC1CS(=O)(=O)CC1O` (stereo not drawn): the T/C is, setting by setting: under setting [13], 98 % of control; under setting [14], 96 % of control; under setting [15], 95 % of control.
Consider `COc1ccc([N+](=O)[O-])cc1NC(=O)Nc1cccc(C(F)(F)F)c1`, for which the T/C by setting is: (endpoint: mean survival time, dose: 50.0 mg/kg/injection, schedule: Q01DX001 (ip), vehicle: Klucel (hydroxypropylcellulose) (HPC)) 101 % of control; (endpoint: mean survival time, dose: 100.0 mg/kg/injection, schedule: Q01DX001 (ip), vehicle: Klucel (hydroxypropylcellulose) (HPC)) 96 % of control; (endpoint: mean survival time, dose: 200.0 mg/kg/injection, schedule: Q01DX001 (ip), vehicle: Klucel (hydroxypropylcellulose) (HPC)) 93 % of control.

The values above are taken from PubChem BioAssay AID256 (DTP/NCI, 2004).
